Measurements reported in patent USRE50083E1, “URAT1 inhibitor and use thereof” (Jiangsu Atom Bioscience and Pharmaceutical Co., Ltd., priority 2016, dated 2024).
Like-named read-outs stand apart in the source and are kept apart here.

Molecular target: T1, hURAT1 (Homo sapiens, UniProt Q96S37)
T1 sequence (Q96S37 1-553): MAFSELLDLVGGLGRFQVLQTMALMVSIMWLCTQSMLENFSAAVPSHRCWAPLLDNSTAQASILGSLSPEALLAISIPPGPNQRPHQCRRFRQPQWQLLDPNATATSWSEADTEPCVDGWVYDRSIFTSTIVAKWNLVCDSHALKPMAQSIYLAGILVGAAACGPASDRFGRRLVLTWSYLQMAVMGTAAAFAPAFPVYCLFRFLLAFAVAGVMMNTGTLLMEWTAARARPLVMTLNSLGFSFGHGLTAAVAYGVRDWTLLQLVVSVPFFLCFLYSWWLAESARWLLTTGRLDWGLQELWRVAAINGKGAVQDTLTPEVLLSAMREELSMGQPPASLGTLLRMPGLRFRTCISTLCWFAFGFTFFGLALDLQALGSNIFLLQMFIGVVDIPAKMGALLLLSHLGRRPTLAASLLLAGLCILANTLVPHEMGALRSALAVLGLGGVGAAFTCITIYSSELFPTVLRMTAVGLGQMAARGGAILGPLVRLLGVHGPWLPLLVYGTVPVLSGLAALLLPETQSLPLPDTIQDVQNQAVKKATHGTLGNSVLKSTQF
Assay: Inhibition assay of uric acid transport in HEK293-hURAT1 transfection cell line (14C-uric acid uptake)
Format: cell-based
Conditions: for inhibition at 0.5 µM: read-out: Inhibitory rates of uric acid transport, ±SD (%); for inhibitory effect on uric acid transport (in words): 500 nM, in comparison with the control drug benzbromarone
Protocol: 1. Construction of a HEK293 Cell Line with High Expression of hURAT1:
The plasmid pCMV6-hURAT1 was transfected into HEK293 cells, and then the stable strain was obtained by the G418 (final concentration of 500 μg/mL) resistance screening, which is the high expression of hURAT1 transporter membrane protein. […] The HEK293 cells are the human embryonic kidney cells with high transfection efficiency, and are a very commonly used engineering cell line for expressing exogenous genes.
2. To a coated 24-well plate was added 200 μl of 0.1 mg/mL poly-lysine per well and the plate was left overnight. Poly-lysine was removed from wells. The wells were cleaned thoroughly with sterile water and dried for use.
3. To the above coated 24-well plate was added HEK293-hURAT1 stable cells (2×10^5 cells per well). The cells were cultured at 37° C. under 5% CO2 for 3 days.
4. […] The solution was fully mixed to give HBSS (pH value: 7.4). The buffer was stored at −20° C.
5. The HBSS buffer was warmed to 37° C. in a water bath. Taken out the 24-well plate with HEK293-hURAT1 stable cells, removed the culture medium and washed cells with HBSS, then added 160 μL of HBSS and 20 μL test compound per well. The final concentration of tested compound per well is 500 nM. The blank control well contains only 180 μL of HBSS without tested compound. The plate was placed at room temperature for 10 min.
6. To each well was added 20 μL of 50 μM ^14C-Uric acid. The 24-well plate was placed at room temperature for 20 min.
7. The solution in each well was removed and the cells were washed with the pre-cooled HBSS buffer. To each well was added 0.2 M NaOH to dissolve the cells. The solution containing cell fragments was collected and the right amount of scintillation liquid was added.
8. The formula for calculating the inhibitory rate of uric acid transport for compounds was shown as below (Table 1), the CPM value of the tested compounds was represented by CPM(tested compound) and the CPM value of the blank control was represented by CPM(blank control).

[1] = 500 nM compound concentration, HEK293-hURAT1 transfection cell line, 14C-uric acid, mean of three tests ± SD
[2] = HEK293-hURAT1 transfection cell line

Row | inhibition at 0.5 µM [1] | inhibitory effect on uric acid transport (in words) [2] | Structure (SMILES) | inhibition at 0.5 µM
1 | 48.2 ± 3.86% | – | CCc1nc2sccn2c1C(O)c1cc(Br)c(O)c(Br)c1 (stereo not shown) [Compound 22, 2,6-dibromo-4-[(6-ethylimidazo[2,1-b]thiazole-5-yl)-hydroxymethyl]phenol] | –
2 | 51.7 ± 2.43% | very good inhibitory effects | CCc1nc2ccc(Br)cn2c1C(O)c1cc(Br)c(O)c(Br)c1 (stereo not shown) [Compound 40, 2,6-dibromo-4-[(6-bromo-2-ethylimidazo[1,2-a]-pyridine-3-yl)hydroxymethyl]phenol] | –
3 | – | – | CCc1oc2ccccc2c1C(=O)c1cc(Br)c(O)c(Br)c1 [Benzbromarone, (3,5-dibromo-4-hydroxy-'phenyl)(2-ethylbenzofuran-3-yl)-methanone, reference compound] | 54.8 ± 5.12%
4 | 39.9 ± 5.34% | – | CCc1nc2cc(OC)ccn2c1C(O)c1cc(Br)c(O)c(Br)c1 (stereo not shown) [Compound 64, 2,6-dibromo-4-{(2-ethyl-7-methoxyimidazo[1,2-a]-pyridine-3-yl)hydroxymethyl}phenol] | –
5 | 50 ± 5.38% | – | CCc1nc2ncccn2c1C(=O)c1cc(Br)c(O)c(Br)c1 [Compound 4, (3,5-dibromo-4-hydroxyphenyl)(2-ethylimidazo[1,2-a]-pyrimidine-3-yl)methanone] | –
6 | 36.3 ± 1.79% | – | CCc1nn2ccccc2c1C(O)c1cc(Br)c(O)c(Br)c1 (stereo not shown) [Compound 35, 2,6-dibromo-4-[(2-ethylpyrazolo[1,5-a]pyridine-3-yl)-hydroxymethyl]phenol] | –
7 | 48.7 ± 5.61% | – | CCc1oc2ccccc2c1C(OC)c1cc(Br)c(O)c(Br)c1 (stereo not shown) [Compound 58, 2,6-dibromo-4-[(2-ethylbenzofuran-3-yl)(methoxy)-methyl]phenol] | –
8 | 31.91 ± 0.23% | – | CCc1nc2scnn2c1C(=O)c1cc(Br)c(O)c(Br)c1 [Compound 49, (3,5-dibromo-4-hydroxyphenyl)(6-ethylimidazo-[2,1-b][1,3,4]thiadiazole-5-yl)methanone] | –
9 | 33 ± 7.33% | – | CCc1nc2ccccn2c1C(O)c1ccc(O)c(C#N)c1 (stereo not shown) [Compound 21, 5-[(2-ethylimidazo[1,2-a]pyridine-3-yl)hydroxymethyl]-2-hydroxybenzonitrile] | –
10 | 41.2 ± 1.92% | – | CCc1nc2ccc(F)cn2c1C(O)c1cc(F)c(O)c(Br)c1 (stereo not shown) [Compound 28, 2-bromo-4-[(2-ethyl-6-fluoroimidazo[1,2-a]pyridine-3-yl)hydroxymethyl]-6-fluorophenol] | –
11 | 50.2 ± 1.02% | very good inhibitory effects | CCc1nc2cnccn2c1C(O)c1cc(Br)c(O)c(Br)c1 (stereo not shown) [Compound 23, 2,6-dibromo-4-[(2-ethylimidazo[1,2-a]pyrazine-3-yl)-hydroxymethyl]phenol] | –
12 | 51.31 ± 0.16% | very good inhibitory effects | CCc1nc2cnccn2c1C(=O)c1cc(Br)c(O)c(Br)c1 [Compound 12, (3,5-dibromo-4-hydroxyphenyl)(2-ethylimidazo[1,2-a]-pyrazine-3-yl)methanone] | –
13 | 62.1 ± 1.26% | very good inhibitory effects | CCc1nc2ccccn2c1C(O)c1cc(Br)c(O)c(C#N)c1 (stereo not shown) [Compound 20, 3-bromo-5-[(2-ethylimidazo[1,2-a]pyridine-3-yl)-hydroxymethyl]-2-hydroxybenzonitrile] | –
14 | 42.9 ± 3.44% | – | CCc1nc2ccccn2c1C(O)c1cc(C)c(O)c(Br)c1 (stereo not shown) [Compound 54, 2-bromo-4-(2-ethylimidazo[1,2-a]pyridine-3-yl)-hydroxymethyl-6-methylphenol] | –
15 | – | – | CCc1oc2ccccc2c1C(O)c1cc(Br)c(O)c(Br)c1 (stereo not shown) [Compound 42, 2,6-dibromo-4-[(2-ethylbenzofuran-3-yl)-hydroxymethyl]phenol] | 37.4 ± 2.36%
16 | 55.2 ± 3.94% | very good inhibitory effects | CCc1nc2sccn2c1C(=O)c1cc(Br)c(O)c(Br)c1 [Compound 8, (3,5-dibromo-4-hydroxyphenyl)(6-ethylimidazo[2,1-b]-thiazole-5-yl)methanone] | –
17 | 37.4 ± 5.52% | – | CCc1nc2cc(C(F)(F)F)ccn2c1C(O)c1cc(Br)c(O)c(Br)c1 (stereo not shown) [Compound 41, 2,6-dibromo-4-{[2-ethyl-7-(trifluoromethyl)-imidazo[1,2-a]pyridine-3-yl]hydroxymethyl}phenol] | –
